Where “and” joins values, the source holds several entries; their conditions need not be identical. Equal entries are not always repeated. Entries after “also recorded” stand apart in the source; their conditions may differ.

The test system of data set [1] is CYP3A4. Kind of data set: CYP 1A2, 2B6 and 3A4 induction, human hepatocytes. Format: in vitro ADME. From the text: Metabolism, inhibition and induction were not observed with other CYPs. Potential DDI interactions exist with drugs that are inhibitors of CYP3A4-T or those metabolized by CYP3A4/3A5; these DDI risks will be better defined once there are human pharmacokinetics (PK) data.

For data set [2], the system named is orthotopic U251-EGFRvIII tumors. Kind of data set: Orthotopic U251-EGFRvIII xenograft in mice. Format: in vivo, mouse. The method, then:
Gefitinib and erlotinib were purchased from Selleck Chemicals. Lapatinib was purchased from MedChemexpress. […] Compound 1 was synthesized by Pharmaron (Wang et al., bioRxiv, 2020.2003.2009.984500). For in vitro studies, compounds were dissolved in DMSO. For in vivo studies, Compound 1 was dissolved in 10% NMP/90% PEG300 and administered by oral gavage at 37.5 mg/kg or 75 mg/kg daily.
Cells (100,000 cells resuspended in 1 μl PBS) were intracranially injected into the right striatum (0 mm anterior, 2 mm lateral, and 2.5 mm ventral to bregma) of 8-10 week-old ICR-SCID mice. Animals were monitored daily for development of neurological defects.
Cells were transduced with lentiviral luciferase (HIV-Luc-zsGreen, addgene #39196). Bioluminescence signals from luciferase-expressing cells in live mice were recorded 10 minutes after intraperitoneal injection of D-luciferin (80 mg/kg) (Gold Biotechnology) with IVIS Lumina III Imaging System (PerkinElmer). The signals were analyzed with Living Image Software (PerkinElmer).
To evaluate the in vivo activity of Compound 1 in GBM with mutant EGFR, U251-EGFRvIII GBM cells expressing luciferase was generated to facilitate monitoring drug response in vivo by bioluminescence-imaging analysis. […]

For data set [3], the system named is three primary patient-derived GBM cell lines harboring EGFR amplification and/or mutations. Kind of data set: Cell viability, three patient-derived GBM cell lines (summary). It is filed as cell-based. The following applies: Homo sapiens; neurosphere culture; read-out: IC50 of cell viability, range over three patient cell lines. Here is the method:
Cells were seeded in 96-well plates at a density of 1,000 cells per well and treated with two-fold serial dilutions of compounds with a starting concentration of 20 μM. Cell viability was assessed after three days of treatment by CellTiter-Glo (Promega). Curve fitting analysis and IC50 value determination were performed using GraphPad Prism 8.

Data set [4] can be described thus: PC-9 SQ lung tumor xenograft in NOD.SCID mice. It is filed as in vivo. The following applies: mouse, plasma, PC-9 model, 4 hours post-dose, oral, read-out: plasma concentration at which anti-tumor activity was noted. The method, then: Compound 1 was also evaluated in xenograft models of lung tumor cell lines harboring EGFR single and double mutations in the mouse.

The target in data set [5] is hERG (Homo sapiens, UniProt Q12809). As to the kind of experiment: hERG assay (HEK cells). Format: cell-based. Here is the method: Compound 1 and/or Compound 2 (active/major metabolite) were evaluated for off-target activity in a large panel of receptors and ion channels, including a human ether-i-go-go-related gene (hERG) assay. Compound 1 was assessed comprehensively in Good Laboratory Practice (GLP) safety pharmacology studies, including studies of cardiovascular, respiratory and central nervous system function.
A general note: hERG is a cardiac potassium channel; its block is linked to QT prolongation.

Data set [6] concerns the target PDGFRB (Homo sapiens, UniProt P09619). Kind of data set: Kinase binding constant (Kd). Here is the method:
(§1) EGFR amplifications and/or mutations are common in GBM, estimated to occur in over 50% of patients.
(§2) Compound 1 and Compound 2 (major metabolite) were evaluated in a panel of 468 human kinases and disease relevant mutant variants. Compound 1 and Compound 2 bound to few non-mutant kinases at <1% of control. […] While there is some variability between Compound 1 and Compound 2, it is clear that both compounds are very effective at binding to a large panel of mutant kinases. […] Binding constant to wild type EGFR was 4.9 nM.

The target of data set [7] is ALK (Homo sapiens, UniProt Q9UM73). Kind of data set: Kinase binding constant (Kd). Here is the method:
as §1, §2

For data set [8], the target named is PDGFRA (Homo sapiens, UniProt P16234). Kind of data set: Kinase binding constant (Kd). Here is the method:
as §1, §2

Sequence of hERG (Q12809 whole entry): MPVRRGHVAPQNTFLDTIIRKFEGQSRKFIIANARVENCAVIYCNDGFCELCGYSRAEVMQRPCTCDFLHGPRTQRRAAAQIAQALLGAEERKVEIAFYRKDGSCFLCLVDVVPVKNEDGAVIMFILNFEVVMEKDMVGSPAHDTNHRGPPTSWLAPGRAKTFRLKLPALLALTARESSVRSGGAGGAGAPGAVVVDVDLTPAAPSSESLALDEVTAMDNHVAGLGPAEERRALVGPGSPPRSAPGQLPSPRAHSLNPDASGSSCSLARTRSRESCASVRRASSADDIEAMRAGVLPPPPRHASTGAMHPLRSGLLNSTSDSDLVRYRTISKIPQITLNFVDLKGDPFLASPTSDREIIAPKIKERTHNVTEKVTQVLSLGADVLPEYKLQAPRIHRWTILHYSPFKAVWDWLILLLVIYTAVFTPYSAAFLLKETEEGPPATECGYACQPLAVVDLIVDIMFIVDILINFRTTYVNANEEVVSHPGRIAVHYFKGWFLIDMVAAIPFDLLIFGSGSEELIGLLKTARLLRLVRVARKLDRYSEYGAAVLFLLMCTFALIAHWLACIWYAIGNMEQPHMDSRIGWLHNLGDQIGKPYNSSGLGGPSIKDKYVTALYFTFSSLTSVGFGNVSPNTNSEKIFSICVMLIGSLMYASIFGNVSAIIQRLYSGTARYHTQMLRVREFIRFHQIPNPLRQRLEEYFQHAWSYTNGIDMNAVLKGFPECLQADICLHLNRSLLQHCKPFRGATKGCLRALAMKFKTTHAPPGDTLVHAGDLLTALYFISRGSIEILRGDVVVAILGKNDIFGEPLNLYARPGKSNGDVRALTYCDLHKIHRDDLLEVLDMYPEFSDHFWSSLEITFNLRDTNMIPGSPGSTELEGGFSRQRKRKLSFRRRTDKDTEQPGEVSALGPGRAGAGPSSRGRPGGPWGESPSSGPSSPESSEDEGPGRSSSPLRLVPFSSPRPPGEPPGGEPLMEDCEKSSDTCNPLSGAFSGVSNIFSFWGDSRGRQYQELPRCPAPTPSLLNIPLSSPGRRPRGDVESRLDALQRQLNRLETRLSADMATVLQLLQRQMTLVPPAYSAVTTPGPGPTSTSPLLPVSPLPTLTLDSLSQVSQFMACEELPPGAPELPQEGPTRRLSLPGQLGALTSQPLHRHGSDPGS
Sequence of PDGFRA (P16234 24-1089): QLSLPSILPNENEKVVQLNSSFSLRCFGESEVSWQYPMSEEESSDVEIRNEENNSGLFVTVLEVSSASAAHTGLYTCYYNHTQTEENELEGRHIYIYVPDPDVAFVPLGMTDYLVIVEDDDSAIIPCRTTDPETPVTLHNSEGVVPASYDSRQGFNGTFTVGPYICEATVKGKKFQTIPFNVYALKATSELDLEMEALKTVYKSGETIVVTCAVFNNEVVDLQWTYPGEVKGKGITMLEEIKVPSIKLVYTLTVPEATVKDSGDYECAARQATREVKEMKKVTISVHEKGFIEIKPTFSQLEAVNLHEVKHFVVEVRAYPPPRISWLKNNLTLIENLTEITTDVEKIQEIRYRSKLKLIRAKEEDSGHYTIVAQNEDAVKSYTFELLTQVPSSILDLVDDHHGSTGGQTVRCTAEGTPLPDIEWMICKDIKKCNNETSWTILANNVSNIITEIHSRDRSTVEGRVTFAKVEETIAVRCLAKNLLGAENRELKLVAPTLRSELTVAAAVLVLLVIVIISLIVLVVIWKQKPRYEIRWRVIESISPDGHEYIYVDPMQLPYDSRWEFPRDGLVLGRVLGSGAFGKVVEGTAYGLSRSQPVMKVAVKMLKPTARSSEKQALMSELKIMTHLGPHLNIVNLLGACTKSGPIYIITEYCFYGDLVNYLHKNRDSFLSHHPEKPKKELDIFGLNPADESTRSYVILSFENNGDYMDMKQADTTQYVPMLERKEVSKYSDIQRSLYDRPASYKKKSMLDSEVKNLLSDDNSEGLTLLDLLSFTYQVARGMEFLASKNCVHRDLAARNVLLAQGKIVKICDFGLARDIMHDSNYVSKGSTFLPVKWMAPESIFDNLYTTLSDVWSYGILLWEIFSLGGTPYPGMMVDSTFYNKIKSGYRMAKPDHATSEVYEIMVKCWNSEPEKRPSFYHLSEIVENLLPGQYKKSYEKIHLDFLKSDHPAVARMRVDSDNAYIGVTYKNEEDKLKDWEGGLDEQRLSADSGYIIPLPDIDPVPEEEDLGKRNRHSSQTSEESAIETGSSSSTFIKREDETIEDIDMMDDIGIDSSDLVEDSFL
Sequence of ALK (Q9UM73 19-1620): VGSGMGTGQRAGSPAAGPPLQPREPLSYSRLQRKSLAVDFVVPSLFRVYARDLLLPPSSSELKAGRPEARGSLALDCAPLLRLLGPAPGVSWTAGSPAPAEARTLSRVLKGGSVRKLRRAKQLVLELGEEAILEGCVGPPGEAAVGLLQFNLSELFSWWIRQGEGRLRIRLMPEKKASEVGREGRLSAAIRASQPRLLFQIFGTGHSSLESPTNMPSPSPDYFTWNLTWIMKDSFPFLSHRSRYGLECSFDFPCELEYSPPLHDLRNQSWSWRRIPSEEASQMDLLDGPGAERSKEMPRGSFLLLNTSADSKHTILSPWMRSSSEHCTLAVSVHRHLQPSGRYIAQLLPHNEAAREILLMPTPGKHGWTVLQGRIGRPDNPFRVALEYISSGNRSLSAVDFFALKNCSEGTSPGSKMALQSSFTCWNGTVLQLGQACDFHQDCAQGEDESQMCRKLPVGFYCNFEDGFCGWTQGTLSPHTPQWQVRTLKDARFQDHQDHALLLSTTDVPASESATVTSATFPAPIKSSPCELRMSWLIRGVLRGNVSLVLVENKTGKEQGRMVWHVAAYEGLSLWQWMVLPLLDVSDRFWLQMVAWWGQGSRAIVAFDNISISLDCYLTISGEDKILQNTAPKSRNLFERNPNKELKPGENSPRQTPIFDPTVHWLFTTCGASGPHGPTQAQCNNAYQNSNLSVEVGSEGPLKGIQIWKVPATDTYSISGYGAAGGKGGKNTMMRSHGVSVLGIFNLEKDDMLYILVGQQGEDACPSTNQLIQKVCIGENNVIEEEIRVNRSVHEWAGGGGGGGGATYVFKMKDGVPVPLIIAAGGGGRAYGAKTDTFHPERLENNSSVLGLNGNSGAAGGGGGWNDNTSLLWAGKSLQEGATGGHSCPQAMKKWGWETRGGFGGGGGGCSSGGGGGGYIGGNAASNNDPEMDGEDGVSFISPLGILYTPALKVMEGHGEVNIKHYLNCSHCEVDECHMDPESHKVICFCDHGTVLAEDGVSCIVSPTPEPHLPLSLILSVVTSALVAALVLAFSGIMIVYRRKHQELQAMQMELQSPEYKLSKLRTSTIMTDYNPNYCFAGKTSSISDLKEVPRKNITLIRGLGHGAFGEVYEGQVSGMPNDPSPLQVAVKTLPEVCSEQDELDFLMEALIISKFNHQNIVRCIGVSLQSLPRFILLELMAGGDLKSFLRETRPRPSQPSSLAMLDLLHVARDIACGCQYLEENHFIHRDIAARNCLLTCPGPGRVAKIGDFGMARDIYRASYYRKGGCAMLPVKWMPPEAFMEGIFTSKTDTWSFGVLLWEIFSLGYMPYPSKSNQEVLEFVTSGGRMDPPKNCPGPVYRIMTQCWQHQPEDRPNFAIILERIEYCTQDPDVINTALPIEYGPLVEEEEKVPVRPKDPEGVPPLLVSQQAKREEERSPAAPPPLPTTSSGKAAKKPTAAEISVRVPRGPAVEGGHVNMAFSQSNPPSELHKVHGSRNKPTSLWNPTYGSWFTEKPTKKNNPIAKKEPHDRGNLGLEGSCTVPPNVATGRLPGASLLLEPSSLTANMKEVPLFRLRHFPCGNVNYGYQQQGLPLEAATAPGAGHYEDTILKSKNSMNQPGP
Sequence of PDGFRB (P09619 33-1106): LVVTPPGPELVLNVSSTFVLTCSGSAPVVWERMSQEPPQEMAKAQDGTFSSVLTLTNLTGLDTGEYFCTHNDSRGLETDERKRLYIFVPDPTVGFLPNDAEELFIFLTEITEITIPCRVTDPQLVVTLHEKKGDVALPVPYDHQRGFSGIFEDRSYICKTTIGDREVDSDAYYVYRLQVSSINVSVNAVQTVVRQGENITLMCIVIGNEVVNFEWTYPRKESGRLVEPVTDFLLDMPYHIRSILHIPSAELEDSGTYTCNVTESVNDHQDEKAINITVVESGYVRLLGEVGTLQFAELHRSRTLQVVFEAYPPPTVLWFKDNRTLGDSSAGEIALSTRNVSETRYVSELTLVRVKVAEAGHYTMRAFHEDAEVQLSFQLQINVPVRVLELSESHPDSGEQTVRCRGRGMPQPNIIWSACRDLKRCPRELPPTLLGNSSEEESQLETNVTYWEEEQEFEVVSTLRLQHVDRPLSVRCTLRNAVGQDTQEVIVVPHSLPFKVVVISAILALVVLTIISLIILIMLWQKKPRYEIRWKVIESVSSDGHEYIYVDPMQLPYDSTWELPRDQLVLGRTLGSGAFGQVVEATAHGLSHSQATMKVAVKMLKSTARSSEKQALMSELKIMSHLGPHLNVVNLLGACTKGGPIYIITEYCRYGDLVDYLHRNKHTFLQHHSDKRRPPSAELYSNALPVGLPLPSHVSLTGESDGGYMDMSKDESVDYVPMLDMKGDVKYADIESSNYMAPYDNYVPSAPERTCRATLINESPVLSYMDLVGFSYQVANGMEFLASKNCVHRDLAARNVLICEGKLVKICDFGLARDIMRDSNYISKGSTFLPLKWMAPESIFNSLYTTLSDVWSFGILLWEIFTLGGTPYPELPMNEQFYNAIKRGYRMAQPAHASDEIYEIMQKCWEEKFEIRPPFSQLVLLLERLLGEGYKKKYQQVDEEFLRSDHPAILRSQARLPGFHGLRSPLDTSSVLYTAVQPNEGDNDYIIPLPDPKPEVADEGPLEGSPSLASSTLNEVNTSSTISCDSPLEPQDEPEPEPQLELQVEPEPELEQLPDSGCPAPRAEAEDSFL

Turning to `C=CC(=O)Nc1cc(Nc2nccc(-n3ccc4cccnc43)n2)c(OC)cc1N(C)CCN(C)C` [Compound 1, N-(5-((4-(1H-pyrrolo[2,3-b]pyridin-1-yl)pyrimidin-2-yl)amino)-2-((2-(dimethylamino)ethyl)(methyl)amino)-4-methoxyphenyl)acrylamide], the “CYP induction based on enzyme activity” value in data set [1] is listed as “no CYP induction”. Besides, the “body weight during treatment” value in data set [2] (37.5 and 75 mg/kg PO QD) was “stable body weight; also recorded: no significant body weight loss”. Further, in data set [2] (37.5 and 75 mg/kg, dose-dependent), the “luminescence signals of tumors” value was “reduced the luminescence signals”. Further, the IC50 (commonly the concentration needed to halve the response being measured) in data set [3] is 0.89 to 3.28 µM; in data set [5], 1.9 µM. In addition, the concentration at 4 h in data set [4] is 1500 ng/mL and 3.1 µM. The “hERG IC100” value in data set [5] is approximately 30 µM. Also, the Kd (as a rule, the free concentration of one partner at which half of the binding sites on the other are occupied at equilibrium, for simple one-to-one binding) in data set [6] was 5.2 µM; in data set [7] it was 0.25 µM; in data set [8] it was 1.5 µM.
